This experiment has as its system guinea pig trachea [モルモット・気管]. Put plainly: Bronchodilation in vitro (spontaneous tension of tracheal spirals). Particulars: Cavia porcellus, Krebs solution, cumulative addition, read-out: IC50 (concentration inhibiting spontaneously generated tension by 50%).

The structures appear in SMILES notation.

With `CCOP(=O)(O)c1ncc(-c2ccc3ccccc3c2)cc1O` [実施例1, [5−(2−ナフチル)−3−ヒドロキシ−2−ピリジル]ホスホン酸エチル], the IC50 came out at 100 µM.

Values taken from patent publication JPH07501070A, “3−ピリジノール誘導体およびその医薬的使用” (スミスクライン・ビーチャム・パブリック・リミテッド・カンパニー, priority 1991, dated 1993).
